Source: patent US20240067693A1, “POLYPEPTIDES AND USES THEREOF” (MEDIMMUNE LIMITED, priority 2020, published 2024)
Numbered stars: 1 amine (or outer) side, 2 acyl side, 3 side chain; on linkers, the order of the positions; unused ones are H or OH. Bridge positions count the residues as written; N and C are the ends. Square brackets hold non-standard residues; d marks the D form. Side chains are listed from the residue outwards. Peptide text beside a SMILES is read from it. * marks the point of attachment. C18 diacid = O=C(O)CCCCCCCCCCCCCCCCC(=O)*; γGlu = O=C(O)[C@H](CCC(=O)[*:2])N[*:1]; αMeF = C[C@](N)(Cc1ccccc1)C(=O)O; Aib = CC(C)(N)C(=O)O

Experiments:
[1] = molecular target: T1, human amylin receptor (calcitonin receptor co-expressed with receptor activity modifying protein, RAMP3) (hAMYR3) (Homo sapiens, UniProt O60896+P30988); assay: cAMP production in 1321N1 cells with stable recombinant expression of human amylin receptor (hAMYR3); format: cell-based; details: for Ratio (selectivity hAMYR vs hCTR, ratio of EC50 values at the two receptors): EC50 hCTR / EC50 hAMYR3; for EC50: cAMP, 1321N1 cells, assay buffer with 0.1% BSA, read-out: EC50 (pM) hAMYR3
T1 construct: expressed in transfected cells
T1 sequence (P30988 25-474): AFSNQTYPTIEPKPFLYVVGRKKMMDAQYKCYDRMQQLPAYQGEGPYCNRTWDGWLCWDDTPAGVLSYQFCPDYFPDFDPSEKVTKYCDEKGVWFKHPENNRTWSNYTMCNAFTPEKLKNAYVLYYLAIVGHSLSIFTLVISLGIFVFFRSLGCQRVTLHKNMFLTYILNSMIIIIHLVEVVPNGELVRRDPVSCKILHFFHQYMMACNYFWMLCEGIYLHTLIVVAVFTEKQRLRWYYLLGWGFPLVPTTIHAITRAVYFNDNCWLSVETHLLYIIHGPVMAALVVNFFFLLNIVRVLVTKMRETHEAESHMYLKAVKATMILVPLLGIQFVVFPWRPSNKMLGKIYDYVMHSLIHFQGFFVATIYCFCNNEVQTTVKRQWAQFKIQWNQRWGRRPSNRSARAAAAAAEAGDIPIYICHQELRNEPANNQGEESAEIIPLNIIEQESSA
T1 sequence (O60896 24-148 partner): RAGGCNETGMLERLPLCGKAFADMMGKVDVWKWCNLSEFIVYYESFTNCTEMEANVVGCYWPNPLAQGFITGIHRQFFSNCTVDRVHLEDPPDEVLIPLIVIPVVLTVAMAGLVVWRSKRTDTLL
Method in brief: (§1)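 Receptor-expressing cells (human receptors in 1321N1, rat receptors in HEK) incubated 30 min at room temperature with peptide in HBSS/HEPES pH 7.4, 0.1% BSA, 0.5 mM IBMX. cAMP read by HTRF; EC50 from 4-parameter fit as % of maximal amylin or calcitonin response.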

[2] = Thioflavin T fibrillation assay; format: physicochemical; details: ThT fibrillation assay; peptide 1 mg/mL in 25 mM sodium acetate buffer pH 4.0; 6 days at 37 °C with shaking; >144 h = no increase
Method in brief: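 Peptides at 1 mg/mL in 25 mM sodium acetate pH 4.0 with ThT (from 0.25 mM stock), incubated 6 days at 37 °C with intermittent orbital shaking at 500–750 rpm. Fluorescence (ex 444/em 480 nm) read every 30 min; value is average time to a rise in baseline-corrected signal.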

[3] = Pharmacokinetic determination via IV and SC administration in Sprague Dawley rats; details: male, rat, plasma, 20 nmol/kg
[4] = molecular target: T2, human calcitonin receptor (hCTR) (Homo sapiens, UniProt P30988); assay: cAMP production in 1321N1 cells with stable recombinant expression of human calcitonin receptor (hCTR); format: cell-based; details: cAMP, 1321N1 cells, assay buffer with 0.1% BSA; read-out: EC50 (pM) hCTR
T2 construct: expressed in transfected cells
T2 sequence (P30988 25-474): T1 sequence (P30988 25-474)
Method in brief: as §1

in vivo = details: male, Sprague-Dawley, rat, 20 nmol/kg

| Ratio (selectivity hAMYR vs hCTR, ratio of EC50 values at the two receptors) [1] | EC50 [1] [pM] | Time taken to detect increase in fluorescence intensity [2] [h] | half-life ([3]; iv) [h] | half-life ([3]; sc) [h] | EC50 [4] [pM] | half-life (in vivo; iv) [h] | half-life (in vivo; sc) [h] | SMILES |
| --- | --- | --- | --- | --- | --- | --- | --- | --- |
| 15 | 278 | >144 | 6.6 | 9.3 | 4040 |  |  | CC[C@H](C)[C@H](NC(=O)[C@@H]1CCCN1C(=O)CNC(=O)[C@](C)(Cc1ccccc1)NC(=O)[C@H](CC(N)=O)NC(=O)[C@H](CC(N)=O)NC(=O)[C@H](CO)NC(=O)[C@H](CO)NC(=O)[C@H](Cc1c[nH]cn1)NC(=O)[C@H](CCCNC(=N)N)NC(=O)[C@H](CC(C)C)NC(=O)[C@H](Cc1ccccc1)NC(=O)[C@H](CC(N)=O)NC(=O)[C@H](C)NC(=O)[C@H](CC(C)C)NC(=O)[C@H](CCCNC(=N)N)NC(=O)[C@H](CCC(N)=O)NC(=O)[C@@H](NC(=O)[C@H](C)NC(=O)[C@@H]1CSSC[C@H](NC(=O)[C@@H](N)CCCCNC(=O)CC[C@H](NC(=O)CCCCCCCCCCCCCCCCC(=O)O)C(=O)O)C(=O)N[C@@H](CC(N)=O)C(=O)N[C@@H]([C@@H](C)O)C(=O)N[C@@H](C)C(=O)N[C@@H]([C@@H](C)O)C(=O)N1)[C@@H](C)O)C(=O)N[C@@H](CC(C)C)C(=O)N1CCC[C@H]1C(=O)N1CCC[C@H]1C(=O)N[C@H](C(=O)N[C@@H](CC(N)=O)C(=O)N[C@H](C(=O)NCC(=O)N[C@@H](CO)C(=O)N[C@@H](CC(N)=O)C(=O)N[C@H](C(=O)N[C@@H](Cc1ccc(O)cc1)C(N)=O)[C@@H](C)O)C(C)C)[C@@H](C)O [Peptide 19, K(γE-C18diacid)[CNTATC]ATQRLANFLRHSSNN(αMePhe)GPILPPTNVGSNTY-amide] (H-K([γGlu-C18 diacid])CNTATCATQRLANFLRHSSNN[αMeF]GPILPPTNVGSNTY-NH2; disulfide 2-7; N-terminus assumed) |
| 19 | 331 |  | 7.2 | 11.6 | 6390 |  |  | CC[C@H](C)[C@H](NC(=O)[C@@H]1CCCN1C(=O)CNC(=O)[C@H](Cc1ccccc1)NC(=O)[C@H](CC(N)=O)NC(=O)C(C)(C)NC(=O)[C@H](CO)NC(=O)[C@H](CO)NC(=O)[C@H](Cc1c[nH]cn1)NC(=O)C(C)(C)NC(=O)[C@H](CC(C)C)NC(=O)[C@H](Cc1ccccc1)NC(=O)[C@H](CC(N)=O)NC(=O)[C@H](C)NC(=O)[C@H](CC(C)C)NC(=O)[C@H](CCCNC(=N)N)NC(=O)[C@H](CCC(N)=O)NC(=O)[C@@H](NC(=O)[C@H](C)NC(=O)[C@@H]1CSSC[C@H](NC(=O)[C@H](CCCCN)NC(=O)[C@@H](N)CCCCNC(=O)CC[C@H](NC(=O)CCCCCCCCCCCCCCCCC(=O)O)C(=O)O)C(=O)N[C@@H](CC(N)=O)C(=O)N[C@@H]([C@@H](C)O)C(=O)N[C@@H](C)C(=O)N[C@@H]([C@@H](C)O)C(=O)N1)[C@@H](C)O)C(=O)N[C@@H](CC(C)C)C(=O)N1CCC[C@H]1C(=O)N1CCC[C@H]1C(=O)N[C@H](C(=O)N[C@@H](CC(N)=O)C(=O)N[C@H](C(=O)NCC(=O)N[C@@H](CO)C(=O)N[C@@H](CC(N)=O)C(=O)N[C@H](C(=O)N[C@@H](Cc1ccc(O)cc1)C(N)=O)[C@@H](C)O)C(C)C)[C@@H](C)O [Peptide 36, K(γE-C18diacid)K[CNTATC]ATQRLANFL(Aib)HSS(Aib)NFGPILPPTNVGSNTY-amide] (H-K([γGlu-C18 diacid])KCNTATCATQRLANFL[Aib]HSS[Aib]NFGPILPPTNVGSNTY-NH2; disulfide 3-8; N-terminus assumed) |
| 31 | 207 |  | 6 | 9.3 | 6400 |  |  | CC[C@H](C)[C@H](NC(=O)[C@@H]1CCCN1C(=O)CNC(=O)[C@H](Cc1ccccc1)NC(=O)[C@H](CC(N)=O)NC(=O)C(C)(C)NC(=O)[C@H](CO)NC(=O)[C@H](CO)NC(=O)[C@H](Cc1c[nH]cn1)NC(=O)[C@H](CCCNC(=N)N)NC(=O)[C@H](CC(C)C)NC(=O)[C@H](Cc1ccccc1)NC(=O)[C@H](CC(N)=O)NC(=O)[C@H](C)NC(=O)[C@H](CC(C)C)NC(=O)[C@H](CCCNC(=N)N)NC(=O)[C@H](CCC(N)=O)NC(=O)[C@@H](NC(=O)[C@H](C)NC(=O)[C@@H]1CSSC[C@H](NC(=O)[C@H](CCCCN)NC(=O)[C@@H](N)CCCCNC(=O)CC[C@H](NC(=O)CCCCCCCCCCCCCCCCC(=O)O)C(=O)O)C(=O)N[C@@H](CC(N)=O)C(=O)N[C@@H]([C@@H](C)O)C(=O)N[C@@H](C)C(=O)N[C@@H]([C@@H](C)O)C(=O)N1)[C@@H](C)O)C(=O)N[C@@H](CC(C)C)C(=O)N1CCC[C@H]1C(=O)N1CCC[C@H]1C(=O)N[C@H](C(=O)N[C@@H](CC(N)=O)C(=O)N[C@H](C(=O)NCC(=O)N[C@@H](CO)C(=O)N[C@@H](CC(N)=O)C(=O)N[C@H](C(=O)N[C@@H](Cc1ccc(O)cc1)C(N)=O)[C@@H](C)O)C(C)C)[C@@H](C)O [Peptide 65, K(γE-C18diacid)K[CNTATC]ATQRLANFLRHSS(Aib)NFGPILPPTNVGSNTY-amide] (H-K([γGlu-C18 diacid])KCNTATCATQRLANFLRHSS[Aib]NFGPILPPTNVGSNTY-NH2; disulfide 3-8) |
| 7 | 407 | >144 |  |  | 2970 | 9.7 | 9.9 | CC[C@H](C)[C@H](NC(=O)[C@@H]1CCCN1C(=O)CNC(=O)[C@H](Cc1ccccc1)NC(=O)[C@H](CC(N)=O)NC(=O)C(C)(C)NC(=O)[C@H](CO)NC(=O)[C@H](CO)NC(=O)[C@H](Cc1c[nH]cn1)NC(=O)[C@@H](NC(=O)[C@H](CC(C)C)NC(=O)[C@H](Cc1ccccc1)NC(=O)[C@H](CC(N)=O)NC(=O)[C@H](C)NC(=O)[C@H](CC(C)C)NC(=O)[C@H](CCCNC(=N)N)NC(=O)[C@H](CCC(N)=O)NC(=O)[C@@H](NC(=O)[C@H](C)NC(=O)[C@@H]1CSSC[C@H](NC(=O)[C@H](CCCCN)NC(=O)[C@@H](N)CCCCNC(=O)CC[C@H](NC(=O)CCCCCCCCCCCCCCCCC(=O)O)C(=O)O)C(=O)N[C@@H](CC(N)=O)C(=O)N[C@@H]([C@@H](C)O)C(=O)N[C@@H](C)C(=O)N[C@@H]([C@@H](C)O)C(=O)N1)[C@@H](C)O)C(C)C)C(=O)N[C@@H](CC(C)C)C(=O)N1CCC[C@H]1C(=O)N1CCC[C@H]1C(=O)N[C@H](C(=O)NC(C)(C)C(=O)N[C@H](C(=O)NCC(=O)N[C@@H](CO)C(=O)N[C@@H](CC(N)=O)C(=O)N[C@H](C(=O)N[C@@H](Cc1ccc(O)cc1)C(N)=O)[C@@H](C)O)C(C)C)[C@@H](C)O [Peptide 80, K(γE-C18diacid)K[CNTATC]ATQRLANFLVHSS(Aib)NFGPILPPT(Aib)VGSNTY-amide] (H-K([γGlu-C18 diacid])KCNTATCATQRLANFLVHSS[Aib]NFGPILPPT[Aib]VGSNTY-NH2; disulfide 3-8; N-terminus assumed) |
| 11.9 | 329 |  | 7.7 | 8.9 | 3930 |  |  | CC[C@H](C)[C@H](NC(=O)[C@@H]1CCCN1C(=O)CNC(=O)[C@H](Cc1ccccc1)NC(=O)[C@H](CC(N)=O)NC(=O)[C@H](CC(N)=O)NC(=O)[C@H](CO)NC(=O)[C@H](CO)NC(=O)[C@H](Cc1c[nH]cn1)NC(=O)C(C)(C)NC(=O)[C@H](CC(C)C)NC(=O)[C@H](Cc1ccccc1)NC(=O)[C@H](CC(N)=O)NC(=O)[C@H](C)NC(=O)[C@H](CC(C)C)NC(=O)[C@H](CCCNC(=N)N)NC(=O)[C@H](CCC(N)=O)NC(=O)[C@@H](NC(=O)[C@H](C)NC(=O)[C@@H]1CSSC[C@H](NC(=O)[C@@H](N)CCCCNC(=O)CC[C@H](NC(=O)CCCCCCCCCCCCCCCCC(=O)O)C(=O)O)C(=O)N[C@@H](CC(N)=O)C(=O)N[C@@H]([C@@H](C)O)C(=O)N[C@@H](C)C(=O)N[C@@H]([C@@H](C)O)C(=O)N1)[C@@H](C)O)C(=O)N[C@@H](CC(C)C)C(=O)N1CCC[C@H]1C(=O)N1CCC[C@H]1C(=O)N[C@H](C(=O)N[C@@H](CCCNC(=N)N)C(=O)N[C@H](C(=O)NCC(=O)N[C@@H](CO)C(=O)N[C@@H](CC(N)=O)C(=O)N[C@H](C(=O)N[C@@H](Cc1ccc(O)cc1)C(N)=O)[C@@H](C)O)C(C)C)[C@@H](C)O [Peptide 155] (H-K([γGlu-C18 diacid])CNTATCATQRLANFL[Aib]HSSNNFGPILPPTRVGSNTY-NH2; disulfide 2-7; N-terminus assumed) |
